One assay has as its target T1, hA2B AR (Homo sapiens, UniProt P29275).
T1 construct: expressed in transfected cells; host or cells: CHO cells
T1 sequence (P29275 1-332): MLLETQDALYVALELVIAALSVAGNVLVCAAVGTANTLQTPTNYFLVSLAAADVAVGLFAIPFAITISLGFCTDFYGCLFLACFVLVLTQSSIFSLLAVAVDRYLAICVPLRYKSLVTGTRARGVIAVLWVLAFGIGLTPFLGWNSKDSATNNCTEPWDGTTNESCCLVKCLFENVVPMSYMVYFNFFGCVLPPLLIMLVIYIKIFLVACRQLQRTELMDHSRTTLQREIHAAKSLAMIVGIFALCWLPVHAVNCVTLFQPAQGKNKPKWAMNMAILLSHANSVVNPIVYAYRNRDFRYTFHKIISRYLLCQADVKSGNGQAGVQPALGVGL
In words: Inhibition of NECA-stimulated adenylyl cyclase activity (cAMP) in CHO cells expressing hA2B AR. The assay is classed as cell-based. Particulars: mean ± SEM. As for the experimental part:
Compounds 1–19 were evaluated for their binding affinity at hA1, hA2A, and hA3 ARs, stably transfected in Chinese hamster ovary (CHO) cells. […].
The binding affinity of the novel compounds was evaluated using radioligand competition experiments in CHO cells stably transfected with hA1 AR, hA2A AR, and hA3 AR subtypes. […]; The potency at hA2B AR, expressed on CHO cells, was determined by inhibition of NECA-stimulated adenylyl cyclase activity. […]
(§1) Binding data and concentration–response curves were fitted by a nonlinear regression with the Prism program (GraphPAD Prism 7 Software, San Diego, CA, USA). Each concentration was tested 3–5 times in duplicate and the Ki or IC50 (the concentration of antagonists that produces 50% inhibition of the agonist effect) values are given as the mean ± standard error (S.E.).

Another assay concerns the target T2, hA3 AR (Homo sapiens, UniProt P0DMS8).
T2 construct: expressed in transfected cells; host or cells: CHO cells
T2 sequence (P0DMS8 1-318): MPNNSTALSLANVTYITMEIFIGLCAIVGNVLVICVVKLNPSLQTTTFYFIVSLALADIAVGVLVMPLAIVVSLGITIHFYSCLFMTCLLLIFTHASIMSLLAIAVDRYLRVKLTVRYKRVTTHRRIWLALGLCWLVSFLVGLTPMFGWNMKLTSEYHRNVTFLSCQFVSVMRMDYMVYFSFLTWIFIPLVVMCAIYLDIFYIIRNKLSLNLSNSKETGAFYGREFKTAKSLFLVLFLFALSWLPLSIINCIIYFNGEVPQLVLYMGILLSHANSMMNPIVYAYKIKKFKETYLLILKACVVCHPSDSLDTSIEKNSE
Briefly: Radioligand binding, displacement of [3H]-HEMADO at hA3 AR in CHO cells. Conditions: displacement of specific [3H]-HEMADO binding, mean ± SEM.

The target of the next assay is T3, human A2A AR (Homo sapiens, UniProt P29274).
T3 construct: expressed in transfected cells; host or cells: CHO cells
Briefly: Radioligand binding, displacement of [3H]-NECA at hA2A AR in CHO cells.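 Note: competition binding on membranes from CHO cells stably transfected with human A2A receptor, binding curves fitted by nonlinear regression in GraphPad Prism.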

The next assay deals with T4, human A1 AR (Homo sapiens, UniProt P30542).
T4 construct: expressed in transfected cells; host or cells: CHO cells
T4 sequence (P30542 1-326): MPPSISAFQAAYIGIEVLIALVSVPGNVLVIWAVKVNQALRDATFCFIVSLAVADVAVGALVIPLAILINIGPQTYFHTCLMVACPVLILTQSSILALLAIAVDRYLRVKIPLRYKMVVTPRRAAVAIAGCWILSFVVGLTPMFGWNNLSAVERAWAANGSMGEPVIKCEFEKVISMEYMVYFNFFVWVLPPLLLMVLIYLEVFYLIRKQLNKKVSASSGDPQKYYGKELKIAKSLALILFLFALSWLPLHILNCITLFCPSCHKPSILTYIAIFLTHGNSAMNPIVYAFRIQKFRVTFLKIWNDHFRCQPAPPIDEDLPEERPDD
Briefly: Radioligand binding, displacement of [3H]-CCPA at hA1 AR in CHO cells. Conditions: displacement of specific [3H]-CCPA binding, n = 3–6, mean ± SEM. On the technique in general: Loss of bound radioactivity is the signal in a displacement assay; it reports binding, not function.

For the next assay, the target named is T5, hA2A AR (Homo sapiens, UniProt P29274).
T5 construct: expressed in transfected cells; host or cells: CHO cells
In words: Inhibition of NECA-induced increase of cAMP in CHO cells expressing hA2A AR (GloSensor cAMP assay). The assay is classed as cell-based. Conditions: inhibition of NECA-stimulated adenylyl cyclase activity, mean ± standard error. As for the experimental part:
Compound 18 was also tested to evaluate its antagonist behavior at the hA1 AR by assessing its ability to counteract NECA-induced decrease of cAMP accumulation.
The intrinsic activity of understudy compounds was evaluated through the GloSensor cAMP assay, as described previously. Briefly, cells stably expressing the hA1, hA2A, and hA2B ARs and the biosensor were incubated for 2 h at rt in equilibration medium containing 3% v/v GloSensor cAMP reagent stock solution, 10% FBS, and 87% CO2 independent medium. Afterward, cells were dispensed in the wells of a 384-well plate and the reference agonist NECA or the compounds, at different concentrations, were tested. The antagonist profile of compounds was evaluated by assessing their ability to counteract NECA-induced increase (A2A and A2B ARs) or decrease (A1 AR) of cAMP accumulation. Responses were expressed as percentage of the maximal relative luminescence units (RLU).
as §1

[1] abbreviates: displacement of specific [3H]-NECA binding, CHO cells, mean ± SEM, read-out: hA2A Ki.
The mark [2] stands for this setting: hA2A AR, as listed in Table 3, read-out: pKi A2A (converted).

The structures appear in SMILES notation. Where two headings read alike, the source gives them in different places.

T3 sequence (P29274 whole entry): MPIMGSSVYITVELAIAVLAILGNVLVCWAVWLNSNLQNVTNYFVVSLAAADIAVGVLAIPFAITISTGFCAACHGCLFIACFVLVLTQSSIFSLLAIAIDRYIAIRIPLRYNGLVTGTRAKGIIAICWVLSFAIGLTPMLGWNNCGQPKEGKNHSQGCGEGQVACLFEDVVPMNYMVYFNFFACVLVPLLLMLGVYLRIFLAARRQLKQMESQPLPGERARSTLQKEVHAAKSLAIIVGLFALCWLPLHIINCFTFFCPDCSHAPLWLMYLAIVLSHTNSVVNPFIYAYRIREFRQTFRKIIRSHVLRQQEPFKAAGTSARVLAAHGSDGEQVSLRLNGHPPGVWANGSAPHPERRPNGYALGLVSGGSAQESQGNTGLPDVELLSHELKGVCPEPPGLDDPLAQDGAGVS
T5 sequence (P29274 whole entry): as above
Procedure for hA3 AR: (§2) CHO cells, stably expressing hARs, were grown adherently and maintained in Dulbecco’s modified Eagle’s medium (DMEM) with nutrient mixture F12 supplemented with 10% fetal bovine serum (FBS), penicillin (100 µg/mL), streptomycin (100 µg/mL), sodium pyruvate (1 mM), and geneticin (0.1 mg/mL).
(§3) Briefly, cells were homogenized in cold lysis buffer (5 mM Tris HCl, 2 mM EDTA, pH 7.4), centrifuged at low speed spin for 10 min, and subsequently, the supernatant was spun at 37,000 rpm. Membrane pellet was resuspended in the specific buffer and stored at −80 °C.
Procedure for human A1 AR: as §2, §3
Procedure for human A2A AR: as §2, §3

Take `Nc1nc(-c2cccc(O)c2)nc2sc(Cc3ccccc3)nc12` [compound 3, 3-(7-Amino-2-benzylthiazolo[5,4-d]pyrimidin-5-yl)phenol]: at hA2B AR, the IC50 is more than 30000 nM. For the same compound, the Ki was found to be 104 ± 21.1 nM at hA3 AR, 7.3 ± 1 nM at human A2A AR (setting [1]) and 15.7 ± 3.4 nM at human A1 AR.

As to `Nc1nc(-c2ccco2)nc2sc(Cc3ccccc3Cl)nc12` [compound 8, 2-(2-Chlorobenzyl)-5-(furan-2-yl)thiazolo[5,4-d]pyrimidin-7-amine], the figures for the half-maximal inhibitory concentration (IC50) against hA2B AR and on hA2A AR were 1890 ± 175 nM and 39 ± 9 nM, respectively. In addition, the Ki on hA3 AR was 4786 ± 5.1 nM; on human A2A AR (setting [1]), 0.2 ± 0.03 nM; at human A2A AR (setting [2]) it was 0.2 nM; at human A1 AR, 3.8 ± 0.6 nM.

Consider `COc1ccccc1Cc1nc2c(N)nc(-c3cccc(O)c3)nc2s1` [compound 12, 3-(7-Amino-2-(2-methoxybenzyl)thiazolo[5,4-d]pyrimidin-5-yl)phenol], for which, on hA2B AR, the IC50 stood at 7420 ± 876 nM. Further, the Ki at hA3 AR stood at 79.6 ± 2.3 nM; on human A2A AR (setting [1]) it was 1.9 ± 0.4 nM; at human A1 AR it was 10.2 ± 0.3 nM.

`Cc1ccc(-c2nc(N)c3nc(Cc4ccccc4Cl)sc3n2)o1` [compound 9, 2-(2-Chlorobenzyl)-5-(5-methylfuran-2-yl)thiazolo[5,4-d]pyrimidin-7-amine]: the values for the IC50 against hA2B AR and against hA2A AR were 8850 ± 1450 nM and 7.7 ± 1.3 nM, respectively. Besides, the Ki was 8.5 ± 1.6 nM at hA3 AR, 0.07 ± 0.006 nM on human A2A AR (setting [1]), 0.0708 nM on human A2A AR (setting [2]) and 0.5 ± 0.1 nM on human A1 AR.

Consider `N#Cc1cccc(-c2nc(N)c3nc(Cc4ccccc4F)sc3n2)c1` [compound 16, 3-(7-Amino-2-(2-fluorobenzyl)thiazolo[5,4-d]pyrimidin-5-yl)benzonitrile], for which, at hA2B AR, half-maximal inhibition (IC50) was put at 1510 ± 121 nM. Moreover, the Ki on hA3 AR was 95.5 ± 1.5 nM; at human A2A AR (setting [1]), 1.4 ± 0.3 nM; at human A1 AR, 21.5 ± 5.1 nM.

`COc1ccccc1Cc1nc2c(N)nc(-c3ccc(C)o3)nc2s1` [compound 14, 2-(2-Methoxybenzyl)-5-(5-methylfuran-2-yl)thiazolo[5,4-d]pyrimidin-7-amine]: it took 2420 ± 545 nM to reach half-maximal inhibition against hA2B AR (IC50). The Ki at hA3 AR was 18.2 ± 5 nM; at human A2A AR (setting [1]), 2 ± 0.6 nM; on human A1 AR, 11.5 ± 2.8 nM.

Regarding `Cc1ccc(-c2nc(N)c3nc(Cc4ccccc4)sc3n2)o1` [compound 5, 2-Benzyl-5-(5-methylfuran-2-yl)thiazolo[5,4-d]pyrimidin-7-amine], the half-inhibitory concentration (IC50) against hA2B AR was 1100 ± 228 nM; at hA2A AR, 88 ± 21 nM. Further, the Ki is 18.8 ± 1.9 nM at hA3 AR, 0.8 ± 0.04 nM on human A2A AR (setting [1]), 0.794 nM on human A2A AR (setting [2]) and 6.8 ± 1.2 nM on human A1 AR.

For the compound `N#Cc1cccc(-c2nc(N)c3nc(Cc4ccccc4Cl)sc3n2)c1` [compound 7, 3-(7-Amino-2-(2-chlorobenzyl)thiazolo[5,4-d]pyrimidin-5-yl)benzonitrile], half-maximal inhibition against hA2B AR (IC50) was put at 6785 ± 62 nM. In addition, the Ki on hA3 AR worked out at 295.1 ± 0.6 nM; at human A2A AR (setting [1]) it was 6.3 ± 0.18 nM; at human A1 AR, 72.8 ± 15 nM.

The compound `N#Cc1cccc(-c2nc(N)c3nc(Cc4ccccc4)sc3n2)c1` [compound 2, 3-(7-Amino-2-benzylthiazolo[5,4-d]pyrimidin-5-yl)benzonitrile] returned an IC50 against hA2B AR of more than 30000 nM. Moreover, the Ki at hA3 AR worked out at 76 ± 0.9 nM; at human A2A AR (setting [1]) it was 4.6 ± 0.9 nM; at human A1 AR, 51.7 ± 11.7 nM.

For the compound `COc1ccccc1Cc1nc2c(N)nc(-c3ccco3)nc2s1` [compound 13, 5-(Furan-2-yl)-2-(2-methoxybenzyl)thiazolo[5,4-d]pyrimidin-7-amine], the IC50 against hA2B AR is 1540 ± 35 nM; against hA2A AR, 35 ± 8.5 nM. Further, the figures for the Ki at hA3 AR, on human A2A AR (setting [1]) and at human A1 AR were 48.6 ± 2.4 nM, 0.2 ± 0.03 nM and 2.4 ± 0.1 nM, respectively.

Consider `Nc1nc(-c2ccccc2)nc2sc(Cc3ccccc3)nc12` [compound 1, 2-Benzyl-5-phenylthiazolo[5,4-d]pyrimidin-7-amine], for which, at hA2B AR, the IC50 is more than 30000 nM. For the same compound, the Ki was 26.6 ± 6 nM at hA3 AR, 2.9 ± 0.04 nM on human A2A AR (setting [1]), 2.82 nM on human A2A AR (setting [2]) and 20 ± 4.3 nM at human A1 AR.

Regarding `Cc1ccc(-c2nc(N)c3nc(Cc4ccccc4F)sc3n2)o1` [compound 19, 2-(2-Fluorobenzyl)-5-(5-methylfuran-2-yl)thiazolo[5,4-d]pyrimidin-7-amine], the IC50 against hA2B AR was determined as 1690 ± 228 nM; on hA2A AR it was 51 ± 12 nM. Moreover, the Ki is 50.2 ± 9.2 nM at hA3 AR, 0.26 ± 0.01 nM on human A2A AR (setting [1]), 0.257 nM on human A2A AR (setting [2]) and 5.7 ± 0.2 nM at human A1 AR.

As to `COc1ccccc1Cc1nc2c(N)nc(-c3ccccc3)nc2s1` [compound 10, 2-(2-Methoxybenzyl)-5-phenylthiazolo[5,4-d]pyrimidin-7-amine], the IC50 was more than 30000 nM at hA2B AR and 125 ± 33 nM on hA2A AR. Moreover, the figures for the Ki at hA3 AR, on human A2A AR (setting [1]) and on human A1 AR were 37.4 ± 1 nM, 0.7 ± 0.1 nM and 4.5 ± 0.8 nM, respectively.

`Nc1nc(-c2ccccc2)nc2sc(Cc3ccccc3F)nc12` [compound 15, 2-(2-Fluorobenzyl)-5-phenylthiazolo[5,4-d]pyrimidin-7-amine] returned an IC50 on hA2B AR of more than 30000 nM. The Ki on hA3 AR is 72.1 ± 5.3 nM; at human A2A AR (setting [1]) it was 1.8 ± 0.6 nM; on human A2A AR (setting [2]), 1.78 nM; at human A1 AR, 1.9 ± 0.05 nM.

Regarding `Nc1nc(-c2cccc(O)c2)nc2sc(Cc3ccccc3F)nc12` [compound 17, 3-(7-Amino-2-(2-fluorobenzyl)thiazolo[5,4-d]pyrimidin-5-yl)phenol], the half-inhibitory concentration (IC50) at hA2B AR amounted to 3240 ± 136 nM. For the same compound, the Ki on hA3 AR amounted to 456 ± 15 nM; on human A1 AR it was 0.5 ± 0.1 nM.

`COc1ccccc1Cc1nc2c(N)nc(-c3cccc(C#N)c3)nc2s1` [compound 11, 3-(7-Amino-2-(2-methoxybenzyl)thiazolo[5,4-d]pyrimidin-5-yl)benzonitrile] had a concentration for half-maximal inhibition (IC50) on hA2B AR of 1540 ± 35 nM. Further, the Ki on hA3 AR was 54.2 ± 1.2 nM; at human A2A AR (setting [1]) it was 2.4 ± 0.09 nM; at human A1 AR, 28.4 ± 4 nM.

`Nc1nc(-c2ccco2)nc2sc(Cc3ccccc3)nc12` [compound 4, 2-Benzyl-5-(furan-2-yl)thiazolo[5,4-d]pyrimidin-7-amine] had an IC50 against hA2B AR of 794 ± 196 nM. Also, the Ki is 65.4 ± 12 nM on hA3 AR, 1.1 ± 0.2 nM on human A2A AR (setting [1]), 1.1 nM at human A2A AR (setting [2]) and 15.5 ± 3.6 nM at human A1 AR.

Compound `Nc1nc(-c2ccccc2)nc2sc(Cc3ccccc3Cl)nc12` [compound 6, 2-(2-Chlorobenzyl)-5-phenylthiazolo[5,4-d]pyrimidin-7-amine] returned an IC50 on hA2B AR of more than 30000 nM. Also, the Ki on hA3 AR was 143 ± 0.2 nM; at human A2A AR (setting [1]), 0.4 ± 0.04 nM; on human A2A AR (setting [2]), 0.398 nM; at human A1 AR it was 2.8 ± 0.05 nM.

As usually defined, the IC50 is the concentration that gives 50% inhibition. A higher IC50 goes with weaker potency.

The values above are taken from article PMC8308585, “Design and Synthesis of Novel Thiazolo[5,4-d]pyrimidine Derivatives with High Affinity for Both the Adenosine A1 and A2A Receptors, and Efficacy in Animal Models of Depression” (Pharmaceuticals, 2021).
